For experiment [1] the following is noted: Kreitlow, Dissertation Greifswald 2000; cited from earlier work.
Experiment [2] deals with MRSA. As to the kind of experiment: MRSA growth in vitro. To be noted: natural substances after the inventive method. In kind it is cell-based, Staphylococcus aureus.

This is an account of results in patent US20060233845A1, “Micro/nanoparticle obtained from lipid-containing marine organisms for use in pharmaceutics and cosmetics” (priority 2002, published 2006).

As for `CC/C=C\C/C=C\C/C=C\CCCCCCCC(=O)O` [linolenic acid, Z,Z,Z-9,12,15-octadecatrienoic acid], in experiment [1], the antibacterial activity result is “antibacterial activity”. `Cc1cc(O)cc2oc3cc(O)cc(O)c3c(=O)c12` [norlichexanthone]: the “growth of MRSA in vitro” value in experiment [2] is on record as “inhibit MRSA-growth in vitro”.

In the case of `CCCCC/C=C/C=C/C(O)CCCCCCCC(=O)O` (stereo not shown) [dimorphecolic acid], the antibacterial activity result in experiment [1] is “antibacterial activity”. As for `CCCCCC(O)/C=C/C=C\CCCCCCCC(=O)O` (stereo not shown) [coriolic acid], the antibacterial activity result in experiment [1] is “antibacterial activity”.
